# Experimental data from patent publication US8481789B2, “Method for producing natural 9-decen-2-one by bioconverting undecylenic acid using a mold, and use in the perfume and food flavoring fields” (priority 2008, dated 2013).
# How the values were obtained:
# rabbits [1] = assay: Acute eye irritation (OECD guideline No. 405, method B.5); assay type: in vivo, rabbit; details: 3 rabbits
# Experimental: Similarly, the molecule was tested on 3 rabbits according to the experimental protocol established by “the OECD guideline No. 405 dated Apr. 24, 2002” and the test “method B.5 of the Directive No. 2004/73/EC): Acute eye irritation”.
# It also emerges therefrom that 9-decen-2-one is not irritant and that no hazard symbol or phrases are required for its use (according to the “EEC Directives 67/548/59 and 99/45”).
# rabbits [2] = assay: Acute dermal irritation (OECD guideline No. 404, method B.4); assay type: in vivo, rabbit; details: 3 rabbits
# Experimental: The molecule was tested on 3 rabbits according to the experimental protocol established by “the OECD guideline No. 404 dated Apr. 24, 2002” and the test “method B.4 of the Directive No. 2004/73/EC): Acute dermal irritation”.
# It emerges therefrom that 9-decen-2-one is not irritant and that no hazard symbol or phrases are required for its use (according to the “EEC Directives 67/548/59 and 99/45”).
# [3] = LD50 test (acute oral toxicity); details: in vivo
smiles,measurement,setting,value
C=CCCCCCCC(C)=O [9-decen-2-one],Acute eye irritation,rabbits [1],not irritant
same,Acute dermal irritation,rabbits [2],not irritant
same,LD50,[3],2500 mg/kg
